In patent publication EP4722212A1, “NOVEL COMPOUND FOR INHIBITING PROTEIN KINASES AND PHARMACEUTICAL COMPOSITION COMPRISING SAME” (Magicbullettherapeutics Co., Ltd., priority 2023, dated 2024):
pIC50: −log10 of the molar value.

What was measured:
ACK1 = biological target: T1, ACK1 (Homo sapiens, UniProt Q07912); test: Enzyme activity inhibition (Reaction Biology); type: biochemical
T1 construct: purchased Reaction Biology (RBC)
Description: (§1) [* <10 nM: A, <100 nM: B, >100 nM: C]. [Table 7]

BMX = biological target: T2, BMX (Homo sapiens, UniProt P51813); test: Enzyme activity inhibition (Reaction Biology); type: biochemical
T2 construct: purchased Reaction Biology (RBC)
T2 sequence (P51813 1-675): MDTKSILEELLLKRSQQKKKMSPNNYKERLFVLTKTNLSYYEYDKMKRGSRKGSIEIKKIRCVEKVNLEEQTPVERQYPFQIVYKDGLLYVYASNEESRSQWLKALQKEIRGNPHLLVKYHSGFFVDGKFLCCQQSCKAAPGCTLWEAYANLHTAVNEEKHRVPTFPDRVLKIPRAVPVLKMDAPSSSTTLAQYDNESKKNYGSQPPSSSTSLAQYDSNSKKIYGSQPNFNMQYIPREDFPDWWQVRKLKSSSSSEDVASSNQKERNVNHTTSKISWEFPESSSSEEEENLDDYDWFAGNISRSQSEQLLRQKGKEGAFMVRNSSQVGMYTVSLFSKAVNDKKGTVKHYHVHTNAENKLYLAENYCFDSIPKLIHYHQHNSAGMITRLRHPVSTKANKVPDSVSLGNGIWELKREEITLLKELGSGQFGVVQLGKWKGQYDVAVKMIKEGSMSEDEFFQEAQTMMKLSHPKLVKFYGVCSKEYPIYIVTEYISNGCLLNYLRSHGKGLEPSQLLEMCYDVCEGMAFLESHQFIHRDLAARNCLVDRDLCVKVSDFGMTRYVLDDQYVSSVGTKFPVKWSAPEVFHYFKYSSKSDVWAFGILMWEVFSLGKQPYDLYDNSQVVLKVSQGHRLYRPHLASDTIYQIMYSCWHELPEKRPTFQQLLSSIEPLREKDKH
Description: as §1

Src = biological target: T3, Src (Homo sapiens, UniProt P12931); test: Enzyme activity inhibition (Reaction Biology); type: biochemical
T3 construct: purchased Reaction Biology (RBC)
T3 sequence (P12931 whole entry): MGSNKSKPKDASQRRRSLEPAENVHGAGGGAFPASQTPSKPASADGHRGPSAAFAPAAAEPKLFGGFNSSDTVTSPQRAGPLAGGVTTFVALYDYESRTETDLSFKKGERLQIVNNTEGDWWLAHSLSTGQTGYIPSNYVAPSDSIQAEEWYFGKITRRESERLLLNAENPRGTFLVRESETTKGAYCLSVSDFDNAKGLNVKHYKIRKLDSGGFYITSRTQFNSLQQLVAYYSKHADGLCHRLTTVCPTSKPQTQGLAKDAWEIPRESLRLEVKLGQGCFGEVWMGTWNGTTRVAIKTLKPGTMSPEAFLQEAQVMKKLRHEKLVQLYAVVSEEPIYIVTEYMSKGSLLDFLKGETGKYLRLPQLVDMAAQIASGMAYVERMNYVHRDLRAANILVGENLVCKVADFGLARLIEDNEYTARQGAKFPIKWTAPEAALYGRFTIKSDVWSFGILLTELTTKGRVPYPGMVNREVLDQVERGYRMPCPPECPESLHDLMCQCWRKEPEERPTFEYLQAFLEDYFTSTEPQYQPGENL
Description: as §1

22Rv1 = test: Cell line inhibition analysis (CCK-8, 72 h); type: cell-based; conditions: Homo sapiens; 22Rv1, 72 hours; read-out: Cell growth inhibition GI50 22Rv1
Description: (§2) C4-2B and 22Rv1 cells were purchased from ATCC and cultured according to the manufacturer's instructions. The cells were seeded in 96-well plates at 7×10^3cells/100 µl/well and allowed to attach for one day. After removing the culture medium, 90 µl/well of fresh culture medium was added, followed by addition of 10 µl/well of culture medium containing compounds at nine concentrations (0.076-500 µM) serially diluted 3-fold and DMSO control to achieve final concentrations of 0-50 µM, and then cultured for 72 hours in a 37 °C CO2 incubator. Cell proliferation after 72 hours was assessed by adding 10 µl/well of CCK-8 solution, orbital shaking for 30 seconds, then incubating at 37 °C CO2 incubator for 2 hours and measuring absorbance at 450 nm using a microplate reader. The measured absorbance values were corrected by subtracting the absorbance of wells containing only culture medium and CCK-8 solution, and GI50 values were calculated using GraphPad Prism 8 software.
(§3) Meanwhile, in a separate 96-well plate, cells were seeded at 7 × 10^3 cells/100 µl/well, allowed to attach for one day, CCK-8 solution was added, and absorbance was measured to establish the 'Growth (%) = 0' value.

C4-2B = test: Cell line inhibition analysis (CCK-8, 72 h); type: cell-based; conditions: read-out: Cell growth inhibition GI50 C4-2B
Description: as §2, §3

A172 = test: Cell line inhibition analysis (CCK-8, 72 h); type: cell-based; conditions: Homo sapiens, A 172; read-out: Cell growth inhibition GI50 A172
Description: as §2, §3
(§4) Furthermore, experiments were conducted on A172, A549, HCI-H460, AsPC-1, MIA-Paca-2, DLD-1, HCT-116, HT-29, SW480, SW620, MDA-MB-231, and SKOV3 cell lines using the same method, with results shown in Tables 9 and 10 below [* <1 µM: A, <5 µM: B, <10 µM: C, >10 µM: D].

A549 = test: Cell line inhibition analysis (CCK-8, 72 h); type: cell-based; conditions: Homo sapiens, read-out: Cell growth inhibition GI50 A549
Description: as §2, §3, §4

AsPC-1 = test: Cell line inhibition analysis (CCK-8, 72 h); type: cell-based; conditions: Homo sapiens, ASPC1; read-out: Cell growth inhibition GI50 AsPC-1
Description: as §2, §3, §4

DLD-1 = test: Cell line inhibition analysis (CCK-8, 72 h); type: cell-based; conditions: Homo sapiens, read-out: Cell growth inhibition GI50 DLD-1
Description: as §2, §3, §4

HCI-H460 = test: Cell line inhibition analysis (CCK-8, 72 h); type: cell-based; conditions: read-out: Cell growth inhibition GI50 HCI-H460
Description: as §2, §3, §4

HCT-116 = test: Cell line inhibition analysis (CCK-8, 72 h); type: cell-based; conditions: Homo sapiens, read-out: Cell growth inhibition GI50 HCT-116
Description: as §2, §3, §4

HT-29 = test: Cell line inhibition analysis (CCK-8, 72 h); type: cell-based; conditions: Homo sapiens, read-out: Cell growth inhibition GI50 HT-29
Description: as §2, §3, §4

MDA-MB-231 = test: Cell line inhibition analysis (CCK-8, 72 h); type: cell-based; conditions: Homo sapiens, read-out: Cell growth inhibition GI50 MDA-MB-231
Description: as §2, §3, §4

MIA-Paca-2 = test: Cell line inhibition analysis (CCK-8, 72 h); type: cell-based; conditions: Homo sapiens, read-out: Cell growth inhibition GI50 MIA-Paca-2
Description: as §2, §3, §4

SKOV3 = test: Cell line inhibition analysis (CCK-8, 72 h); type: cell-based; conditions: Homo sapiens, SK-OV-3; read-out: Cell growth inhibition GI50 SKOV3
Description: as §2, §3, §4

SW480 = test: Cell line inhibition analysis (CCK-8, 72 h); type: cell-based; conditions: Homo sapiens, read-out: Cell growth inhibition GI50 SW480
Description: as §2, §3, §4

SW620 = test: Cell line inhibition analysis (CCK-8, 72 h); type: cell-based; conditions: Homo sapiens, SW-620; read-out: Cell growth inhibition GI50 SW620
Description: as §2, §3, §4

T1 sequence (Q07912 whole entry): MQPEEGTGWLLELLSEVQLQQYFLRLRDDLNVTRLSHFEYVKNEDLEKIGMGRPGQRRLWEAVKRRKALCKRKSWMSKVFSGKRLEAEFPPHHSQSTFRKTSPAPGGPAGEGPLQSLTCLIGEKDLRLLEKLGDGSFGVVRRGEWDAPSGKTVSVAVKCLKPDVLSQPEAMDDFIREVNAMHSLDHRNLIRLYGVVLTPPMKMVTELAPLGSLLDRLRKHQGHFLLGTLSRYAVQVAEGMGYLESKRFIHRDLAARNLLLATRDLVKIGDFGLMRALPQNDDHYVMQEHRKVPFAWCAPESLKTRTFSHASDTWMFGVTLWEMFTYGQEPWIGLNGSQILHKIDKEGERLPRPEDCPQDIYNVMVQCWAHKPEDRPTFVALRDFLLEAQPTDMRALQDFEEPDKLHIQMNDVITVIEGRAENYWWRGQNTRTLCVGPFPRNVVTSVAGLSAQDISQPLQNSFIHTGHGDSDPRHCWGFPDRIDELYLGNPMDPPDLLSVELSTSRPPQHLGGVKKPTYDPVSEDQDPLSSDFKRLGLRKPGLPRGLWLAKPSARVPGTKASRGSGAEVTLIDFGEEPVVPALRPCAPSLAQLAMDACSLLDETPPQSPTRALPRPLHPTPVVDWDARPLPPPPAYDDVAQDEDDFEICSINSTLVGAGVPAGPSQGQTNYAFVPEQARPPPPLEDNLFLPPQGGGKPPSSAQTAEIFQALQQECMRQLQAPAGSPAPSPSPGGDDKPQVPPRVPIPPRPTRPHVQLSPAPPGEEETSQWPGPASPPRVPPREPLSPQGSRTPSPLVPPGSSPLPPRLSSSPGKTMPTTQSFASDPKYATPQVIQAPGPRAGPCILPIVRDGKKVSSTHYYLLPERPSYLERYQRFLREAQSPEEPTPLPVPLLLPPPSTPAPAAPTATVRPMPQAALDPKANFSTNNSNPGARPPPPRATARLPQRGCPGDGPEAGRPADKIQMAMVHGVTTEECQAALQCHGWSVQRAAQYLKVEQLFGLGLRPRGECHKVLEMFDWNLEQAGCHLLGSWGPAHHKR

Structure (SMILES)	pIC50 (ACK1)	pIC50 (BMX)	pIC50 (Src)	GI50 (22Rv1)	GI50 (C4-2B)	GI50 (A172)	GI50 (A549)	GI50 (AsPC-1)	GI50 (DLD-1)	GI50 (HCI-H460)	GI50 (HCT-116)	GI50 (HT-29)	GI50 (MDA-MB-231)	GI50 (MIA-Paca-2)	GI50 (SKOV3)	GI50 (SW480)	GI50 (SW620)
Cc1ccc(NC(=O)c2cccc(C(F)(F)F)c2)cc1N1Cc2cnc(N)nc2C2(CC2)C1=O [Compound 2, N-(3-(2'-amino-7'-oxo-5'H-spiro[cyclopropane-1,8'-pyrido[4,3-d]pyrimidine]-6'(7'H)-yl)-4-methylphenyl)-3-(trifluoromethyl)benzamide]	7.00 to 8.00	7.00 to 8.00	7.00 to 8.00	1000 to 5000 nM	1000 to 5000 nM	< 1000 nM	> 10000 nM	< 1000 nM	1000 to 5000 nM	1000 to 5000 nM	< 1000 nM	> 10000 nM	1000 to 5000 nM	< 1000 nM	1000 to 5000 nM	1000 to 5000 nM	1000 to 5000 nM
Cc1ccc(NC(=O)c2cccc(C(F)(F)F)c2)cc1N1Cc2cnc(NC3CC3)nc2C2(CC2)C1=O [Compound 3, N-(3-(2'-(cyclopropylamino)-7'-oxo-5'H-spiro[cyclopropane-1,8'-pyrido[4,3-d]pyrimidine]-6'(7'H)-yl)-4-methylphenyl)-3-(trifluoromethyl)benzamide]	7.00 to 8.00	> 8.00	7.00 to 8.00	> 10000 nM	1000 to 5000 nM			1000 to 5000 nM			1000 to 5000 nM		1000 to 5000 nM			1000 to 5000 nM	1000 to 5000 nM
Cc1ccc(NC(=O)c2cc(F)cc(C(F)(F)F)c2)cc1N1Cc2cnc(N)nc2C2(CC2)C1=O [Compound 7, N-(3-(2'-amino-7'-oxo-5'H-spiro[cyclopropane-1,8'-pyrido[4,3-d]pyrimidine]-6'(7'H)-yl)-4-methylphenyl)-3-fluoro-5-(trifluoromethyl)benzamide]	> 8.00	> 8.00	> 8.00	< 1000 nM	< 1000 nM			< 1000 nM			1000 to 5000 nM		1000 to 5000 nM			1000 to 5000 nM	1000 to 5000 nM
Cc1ccc(NC(=O)c2cncc(C(F)(F)F)c2)cc1N1Cc2cnc(N)nc2C2(CC2)C1=O [Compound 24, N-(3-(2'-amino-7'-oxo-5'H-spiro[cyclopropane-1,8'-pyrido[4,3-d]pyrimidine]-6'(7'H)-yl)-4-methylphenyl)-5-(trifluoromethyl)nicotinamide]	> 8.00	> 8.00	> 8.00	5000 to 10000 nM	1000 to 5000 nM	< 1000 nM	> 10000 nM	1000 to 5000 nM	1000 to 5000 nM	1000 to 5000 nM	< 1000 nM	> 10000 nM	1000 to 5000 nM	1000 to 5000 nM	1000 to 5000 nM	1000 to 5000 nM	< 1000 nM
Cc1ccc(NC(=O)c2cccc(C(F)(F)F)c2)cc1N1Cc2cnc(Nc3cnn(CC(F)(F)F)c3)nc2C2(CC2)C1=O [Compound 64, N-(4-methyl-3-(7'-oxo-2'-((1-(2,2,2-trifluoroethyl)-1H-pyrazol-4-yl)amino)-5'H-spiro[cyclopropane-1,8'-pyrido[4,3-d]pyrimidine]-6'(7'H)-yl)phenyl)-3-(trifluoromethyl)benzamide]								< 1000 nM			< 1000 nM		< 1000 nM			< 1000 nM	< 1000 nM
Cc1ccc(NC(=O)c2cccc(C(F)(F)F)c2)cc1N1Cc2cnc(NCCO)nc2C2(CC2)C1=O [Compound 126, N-(3-(2'-((2-hydroxyethyl)amino)-7'-oxo-5'H-spiro[cyclopropane-1,8'-pyrido[4,3-d]pyrimidine]-6'(7'H)-yl)-4-methylphenyl)-3-(trifluoromethyl)benzamide]						1000 to 5000 nM	1000 to 5000 nM					5000 to 10000 nM					
Cc1ccc(NC(=O)c2cccc(C(F)(F)F)c2)cc1N1Cc2cnc(N[C@@H](C)CO)nc2C2(CC2)C1=O [Compound 127, (S)-N-(3-(2'-((1-hydroxypropan-2-yl)amino)-7'-oxo-5'H-spiro[cyclopropane-1,8'-pyrido[4,3-d]pyrimidine]-6'(7'H)-yl)-4-methylphenyl)-3-(trifluoromethyl)benzamide]						< 1000 nM	> 10000 nM					> 10000 nM					
Cc1ccc(NC(=O)c2cncc(C(F)(F)F)c2)cc1N1Cc2cnc(NCCO)nc2C2(CC2)C1=O [Compound 130, N-(3-(2'-((2-hydroxyethyl)amino)-7'-oxo-5'H-spiro[cyclopropane-1,8'-pyrido[4,3-d]pyrimidine]-6'(7'H)-yl)-4-methylphenyl)-5-(trifluoromethyl)nicotinamide]						1000 to 5000 nM	> 10000 nM					> 10000 nM					
Cc1ccc(NC(=O)c2cncc(C(F)(F)F)c2)cc1N1Cc2cnc(N[C@@H](C)CO)nc2C2(CC2)C1=O [Compound 131, (S)-N-(3-(2'-((1-hydroxypropan-2-yl)amino)-7'-oxo-5'H-spiro[cyclopropane-1,8'-pyrido[4,3-d]pyrimidine]-6'(7'H)-yl)-4-methylphenyl)-5-(trifluoromethyl)nicotinamide]						1000 to 5000 nM	> 10000 nM					> 10000 nM					
